Results published in the NIST ThermoML archive (doi:10.1021/je500936y).

How the values were obtained:
[1] = 100 kPa, Liquid; for speed of sound: Frequency=3 MHz, Sing-around technique in a fixed-path interferometer; for mass density: Vibrating tube method
[2] = refractive index (Na D-line) (dimensionless); conditions: 100 kPa, Liquid, Standard Abbe refractometry
[3] = refractive index (Na D-line) (dimensionless); xn = mol fraction of the nth substance listed; conditions: 100 kPa, Liquid, Standard Abbe refractometry, x1 = 1
[4] = xn = mol fraction of the nth substance listed; conditions: 100 kPa, Liquid, x1 = 1; for speed of sound: Frequency=3 MHz, Sing-around technique in a fixed-path interferometer; for mass density: Vibrating tube method

CCCCn1cc[n+](C)c1.F[B-](F)(F)F [1-butyl-3-methylimidazolium tetrafluoroborate]
Conditions	mass density, [1] [kg/m3]	refractive index, [2]	speed of sound, [1] [m/s]
298.15 K	1198.78	1.42058	1565.1
303.15 K	1195.18	1.41913	1553.2
308.15 K	1191.6	1.41764	1541.3
313.15 K	1188.04	1.41621	1529.7
318.15 K	1184.5	1.41472	1518.2
323.15 K	1180.98	1.4133	1506.8

CCCCn1cc[n+](C)c1.F[B-](F)(F)F [1-butyl-3-methylimidazolium tetrafluoroborate] + C=CN1CCCC1=O
Conditions	mass density, [4] [kg/m3]	refractive index, [3]	speed of sound, [4] [m/s]
298.15 K	1198.78	1.42058	1565.1
303.15 K	1195.18	1.41913	1553.2
308.15 K	1191.6	1.41764	1541.3
313.15 K	1188.04	1.41621	1529.7
318.15 K	1184.5	1.41472	1518.2
323.15 K	1180.98	1.4133	1506.8

C=CN1CCCC1=O [N-vinylpyrrolidone]
Conditions	mass density, [1] [kg/m3]	refractive index, [2]	speed of sound, [1] [m/s]
298.15 K	1039.36	1.51119	1521.5
303.15 K	1034.95	1.50886	1502.5
308.15 K	1030.55	1.5065	1483.7
313.15 K	1026.14	1.50415	1465
318.15 K	1021.73	1.50181	1446.5
323.15 K	1017.33	1.49948	1428.1
